Reference: patent US6331548A, “1-cycloalkyl-1,8-naphthyridin-4-one derivative as type IV phosphodiesterase inhibitor” (Suntory Limited, priority 1998, dated 2001)

Key:
[1] = molecular target: type IV phosphodiesterase; assay: Type IV phosphodiesterase inhibiting activity; assay type: biochemical, human; details: U937 type IV phosphodiesterase fraction, 0.28 μM cAMP, pH 7.5, 30° C., 30 minutes; read-out: PDEIV-IC50
Procedure: The following assay was used to evaluate the ability of the compound of the present invention to suppress type IV phosphodiesterase, according to Biochemical. Pharmacol. 48 (6), 1219-1223 (1994).
1) Type IV phosphodiesterase activity fractions were prepared as follows. Namely, human histiocytic lymphoma cell line U937 was cultured in an RPMI1640 medium containing 10% fetal calf serum to obtain 10^9 cells of U937. The cells were recovered by centrifugation and suspended in 40 ml of buffer A (20 mM bis-tris, 5 mM 2-mercaptoethanol, 2 mM benzamidine, 2 mM EDTA, 0.1 mM 4-(2-aminoethyl)benzensulfonyl hydrochloride, 50 mM sodium acetate, pH=6.5). The cells were broken by a sonication and centrifuged (4° C., 10,000 G, 10 minutes) to obtain a supernatant. This was filtered by a 0.45 μm filter to obtain the soluble fraction.
2) The soluble fraction obtained was applied into a 1×10 cm DEAE Sepharose column equalibrated with the buffer A. 120 ml of the buffer A containing a linear gradient solution of 0.05 to 1M sodium acetate was used to separate the phosphodiesterase and recover 24 5-ml fractions. Each of the fractions was measured for the cAMP phosphodiesterase activity.
3) The test compound was reacted at a desired concentration in a reaction mixture containing 20 mM tris-HCl (pH 7.5), 1 mM MgCl2, 100 μM EDTA, 330 μg/ml calf serum albumin, 10 μg/ml 5'-nucleotidase, 0.4 μCi ^3 H-cAMP (0.28 μM cAMP) and the type IV phosphodiesterase stored solution at 30° C. for 30 minutes. QAE-Sephadex suspended in 10 mM of hepes-Na (pH -7.0) was added to the reaction mixture which was then allowed to stand for 5 minutes, then the supernatant was obtained, QAE-Sephadex was further added, to the supernatant, and was allowed to stand for 5 minutes, then the supernatant was obtained and measured for radioactivity.

[2] = test system: TNF-α production by LPS stimulated macrophages; assay: TNF-α production inhibitory activity by LPS stimulated macrophages; assay type: cell-based; details: Macrophage, BALB/c mouse peritoneal macrophages, cultured for 8 hours, ELISA
Procedure: The following assay was used to evaluate the ability of the compound of the present invention to suppress TNF-α production by LPS stimulated macrophages according to Immunopharmacol. 29, 121-127 (1995).
1) 6 to 10 week old female BALB/c mice were used, 2 ml portions of thioglycolate were intraperitoneally administered, and the abdominal cavities were washed by 10 ml of PBS after 4 days, whereby 1 to 2×10^7 peritoneal cells were obtained per mouse. These were suspended in a hemocyte solution (0.75% ammonium chloride, 17 mM tris-hydrochlorate buffer, pH7.2), centrifuged, then resuspended in an RPMI1640 medium including 10% fetal calf serum and seeded in a 96-well cell culture plate at a density of 1×10^5 cells/50 μl/well. Since these cells adhered strongly to the tissue culture plate and were positive in nonspecific esterase staining, they were used for the test as mouse peritoneal macrophages. Mouse peritoneal macrophages were precultured overnight at 37° C. in […] for the experiment.
2) E. Coli (serum type 055:B5) derived LPS was dissolved in PBS in a concentration of 1 mg/ml, then sterilized by filtration. The test compound was dissolved in DMSO to make a 1000-fold concentration solution of the final concentration of use. 10 μl of the above LPS stock solution (final concentration 10 μg/ml) and 1 μl of the tested substance stock solution were added and mixed in 0.5 ml of RPMI1640 medium containing 10% fetal calf serum. This was added to the above cells at 50 μl/well and cultured for 8 hours. The cultured supernatant was recovered from each well and the TNF-α concentration was measured by the ELISA method (Cytoscreen® Immunoassay Kit Mouse TNF-α, BioSourse International).
The comparative example was the compound described in WO-A-97-04775, Example 1, mentioned above.

mice = assay: Toxicity: death on intraperitoneal administration to mice for 5 weeks; assay type: in vivo; details: 10 mg/kg per day intraperitoneally for 5 weeks
Source text: Further, the compounds of the present invention are low in toxicity, and these compounds are expected to be high in safety.

In the case of O=C(Nc1c(Cl)cncc1Cl)c1cn([C@H]2CC[C@H](O)CC2)c2ncccc2c1=O [Example 117, N-(3,5-dichloropyridin-4-yl)-1-(trans-4-hydroxycyclohexyl)-1,4-dihydro[1,8]naphthylidin-4-one-3-carboxamide], the IC50 [1] is reported as 3.7 nM, the IC50 [2] is reported as 2 nM and the death (mice) is reported as “no death”.

O=C1CCC(n2cc(C(=O)Nc3c(Cl)cncc3Cl)c(=O)c3cccnc32)CC1 [Example 120, N-(3,5-dichloropyridin-4-yl)-1-(4-oxocyclohexyl)-1,4-dihydro[1,8]naphthylidin-4-one-3-carboxamide] was tested, and the IC50 [1] was 2.7 nM, the IC50 [2] was 0.7 nM and the death (mice) was “no death”.

O=C(Nc1ccncc1)c1cn(C2CC2)c2ncccc2c1=O [Example 139, N-(4-pyridyl)-1-cyclopropyl-1,4-dihydro[1,8]naphthylidin-4-one-3-carboxamide] was tested, and the IC50 [1] was 240 nM, the IC50 [2] was 370 nM and the death (mice) was “no death”.

For O=C(Nc1ccncc1Cl)c1cn([C@H]2CC[C@H](O)CC2)c2ncccc2c1=O [Example 122, N-(3-chloropyridin-4-yl)-1-(trans-4-hydroxycyclohexyl)-1,4-dihydro[1,8]naphthylidin-4-one-3-carboxamide], the IC50 [1] was 200 nM and the IC50 [2] was 1200 nM.

In the case of COC(=O)N1CC(n2cc(C(=O)Nc3cccnc3)c(=O)c3cccnc32)C1 [Example 32, N-(3-pyridyl)-1-(1-methoxycarbonylazetidin-3-yl)-1,4-dihydro[1,8]naphthylidin-4-one-3-carboxamide], the IC50 [1] is reported as 2200 nM and the IC50 [2] is reported as 4000 nM.

CCn1cc(C(=O)NCCc2ccncc2)c(=O)c2ccc(C)nc21 [Comp. Ex., N-(2-(4-pyridyl)ethyl)-1-ethyl-7-methyl-1,8-naphthyridin-1,4-dihydro-4-one-3-carboxyamide, reference compound] was tested, and the IC50 [1] was 5200 nM and the IC50 [2] was 10000 nM.

CO[C@H]1CC[C@H](n2cc(C(=O)Nc3ccncc3)c(=O)c3cccnc32)CC1 [Example 126, N-(4-pyridyl)-1-(trans-4-methoxycyclohexyl)-1,4-dihydro[1,8]naphthylidin-4-one-3-carboxamide] was tested, and the IC50 [1] was 720 nM and the IC50 [2] was 1800 nM.

In the case of O=C1CCC(n2cc(C(=O)Nc3ccncc3Cl)c(=O)c3cccnc32)CC1 [Example 123, N-(3-chloropyridin-4-yl)-1-(4-oxocyclohexyl)-1,4-dihydro[1,8]naphthylidin-4-one-3-carboxamide], the IC50 [1] is reported as 390 nM and the IC50 [2] is reported as 1200 nM.

With CCNC(=O)N1CCC(n2cc(C(=O)Nc3c(Cl)cncc3Cl)c(=O)c3cccnc32)CC1 [Example 27, N-(3,5-dichloropyridin-4-yl)-1-(1-ethylaminocarbonylpiperidin-4-yl)-1,4-dihydro[1,8]naphthylidin-4-one-3-carboxamide] the IC50 [1] was 1.3 nM and the IC50 [2] was 10 nM.

Compound COC(=O)N1CC[C@@H](n2cc(C(=O)Nc3c(Cl)cncc3Cl)c(=O)c3cccnc32)C1 [Example 17, (R)-N-(3,5-dichloropyridin-4-yl)-1-(1-methoxycarbonylpyrrolidin-3-yl)-1,4-dihydro[1,8]naphthylidin-4-one-3-carboxamide] has an IC50 [1] of 4.8 nM and an IC50 [2] of 10 nM.

COC(=O)N1CC(n2cc(C(=O)Nc3ccncc3)c(=O)c3cccnc32)C1 [Example 33, N-(4-pyridyl)-1-(1-methoxycarbonylazetidin-3-yl)-1,4-dihydro[1,8]naphthylidin-4-one-3-carboxamide] was tested, and the IC50 [1] was 2000 nM and the IC50 [2] was 5000 nM.

Compound O=C(Nc1c(Cl)cncc1Cl)c1cn(C2CC2)c2ncccc2c1=O [Example 140, N-(3,5-dichloropyridin-4-yl)-1-cyclopropyl-1,4-dihydro[1,8]naphthylidin-4-one-3-carboxamide] has an IC50 [1] of 2.5 nM and an IC50 [2] of 10 nM.

With O=C(Nc1ccncc1)c1cn([C@H]2CCOC2)c2ncccc2c1=O [Example 43, N-(4-pyridyl)-1-[(S)-tetrahydro-3-furanyl]-1,4-dihydro[1,8]naphthylidin-4-one-3-carboxamide] the IC50 [1] was 190 nM and the IC50 [2] was 2500 nM.

Compound COC(=O)N1CC[C@H](n2cc(C(=O)Nc3c(Cl)cccc3Cl)c(=O)c3cccnc32)C1 [Example 9, (S)-N-(2,6-dichlorophenyl)-1-(1-methoxycarbonylpyrrolidin-3-yl)-1,4-dihydro[1,8]naphthyridin-4-one-3-carboxamide] has an IC50 [1] of 23 nM and an IC50 [2] of 100 nM.

In the case of O=C(CN1CCC(n2cc(C(=O)Nc3c(Cl)cncc3Cl)c(=O)c3cccnc32)CC1)OCc1ccccc1 [Example 49, benzyl 2-{4-[3-[(3,5-dichloropyridin-4-yl)amino]carbonyl-1,4-dihydro[1,8]naphthylidin-4-one-1-yl]piperidino}acetate], the IC50 [1] is reported as 22 nM and the IC50 [2] is reported as 200 nM.

For CCNC(=O)N1CC[C@H](n2cc(C(=O)Nc3c(Cl)cncc3Cl)c(=O)c3cccnc32)C1 [Example 18, (S)-N-(3,5-dichloropyridin-4-yl)-1-(1-ethylaminocarbonylpyrrolidin-3-yl)-1,4-dihydro[1,8]naphthylidin-4-one-3-carboxamide], the IC50 [1] was 4.7 nM and the IC50 [2] was 1 nM.

O=C(Nc1c(Cl)cncc1Cl)c1cn(N2CCOCC2)c2ncccc2c1=O [Example 107, N-(3,5-dichloropyridin-4-yl)-1-(1-morpholino)-1,4-dihydro[1,8]naphthylidin-4-one-3-carboxamide] was tested, and the IC50 [1] was 0.4 nM and the IC50 [2] was 3 nM.

O=C(Nc1ccncc1)c1cn([C@H]2CC[C@H](O)CC2)c2ncccc2c1=O [Example 113, N-(4-pyridyl)-1-(trans-4-hydroxycyclohexyl)-1,4-dihydro[1,8]naphthylidin-4-one-3-carboxamide] showed an IC50 [1] of 400 nM and an IC50 [2] of 300 nM.

CN(C)C(=O)[C@@H]1C[C@H](n2cc(C(=O)Nc3c(Cl)cncc3Cl)c(=O)c3cccnc32)CN1C(=O)OCc1ccccc1 [Example 92, N-(3,5-dichloropyridin-4-yl)-1-[(3S,5S)-(1-benzyloxycarbonyl-5-dimethylaminocarbonyl)pyrrolidin-3-yl]-1,4-dihydro[1,8]naphthylidin-4-one-3-carboxamide] gave an IC50 [1] of 2.1 nM and an IC50 [2] of 70 nM.

With O=C(Nc1c(Cl)cncc1Cl)c1cn([C@@H]2CCOC2)c2ncccc2c1=O [Example 39, N-(3,5-dichloropyridin-4-yl)-1-[(R)-tetrahydro-3-furanyl]-1,4-dihydro[1,8]naphthylidin-4-one-3-carboxamide] the IC50 [1] was 10 nM and the IC50 [2] was 5000 nM.

With O=C(Nc1ccncc1)c1cn(C2CCSCC2)c2ncccc2c1=O [Example 100, N-(4-pyridyl)-1-(4-tetrahydrothiopyranyl)-1,4-dihydro[1,8]naphthylidin-4-one-3-carboxamide] the IC50 [1] was 43 nM and the IC50 [2] was 70 nM.

COC(=O)N1CC[C@@H](n2cc(C(=O)Nc3c(Cl)cccc3Cl)c(=O)c3cccnc32)C1 [Example 16, (R)-N-(2,6-dichlorophenyl)-1-(1-methoxycarbonylpyrrolidin-3-yl)-1,4-dihydro[1,8]naphthyridin-4-one-3-carboxamide] gave an IC50 [1] of 54 nM and an IC50 [2] of 300 nM.

O=C(O)CN1CCC(n2cc(C(=O)Nc3c(Cl)cncc3Cl)c(=O)c3cccnc32)CC1 [Example 50] was tested, and the IC50 [1] was 100 nM and the IC50 [2] was 7000 nM.

CN1CCC(n2cc(C(=O)Nc3c(Cl)cncc3Cl)c(=O)c3cccnc32)CC1 [Example 51, N-(3,5-dichloropyridin-4-yl)-1-(1-methylpiperidin-4-yl)-1,4-dihydro[1,8]naphthylidin-4-one-3-carboxamide] showed an IC50 [1] of 43 nM and an IC50 [2] of 50 nM.
